# Legend:
# [1] = target: PIK3CD (Human) (UniProt O00329); assay: Assessment of PIK3CD Kinase Activity
# [2] = target: PIK3CG (human) (UniProt P48736); assay: Assessment of PIK3CG Kinase Activity
# [3] = target: PIK3CB (Human) (UniProt P42338); assay: Assessment of PIK3CB Kinase Activity
# [4] = target: PIK3CA (human) (UniProt P42336); assay: Assessment of PIK3CA Kinase Activity
# Sequence of PIK3CA (human) (P42336 whole entry, looked up): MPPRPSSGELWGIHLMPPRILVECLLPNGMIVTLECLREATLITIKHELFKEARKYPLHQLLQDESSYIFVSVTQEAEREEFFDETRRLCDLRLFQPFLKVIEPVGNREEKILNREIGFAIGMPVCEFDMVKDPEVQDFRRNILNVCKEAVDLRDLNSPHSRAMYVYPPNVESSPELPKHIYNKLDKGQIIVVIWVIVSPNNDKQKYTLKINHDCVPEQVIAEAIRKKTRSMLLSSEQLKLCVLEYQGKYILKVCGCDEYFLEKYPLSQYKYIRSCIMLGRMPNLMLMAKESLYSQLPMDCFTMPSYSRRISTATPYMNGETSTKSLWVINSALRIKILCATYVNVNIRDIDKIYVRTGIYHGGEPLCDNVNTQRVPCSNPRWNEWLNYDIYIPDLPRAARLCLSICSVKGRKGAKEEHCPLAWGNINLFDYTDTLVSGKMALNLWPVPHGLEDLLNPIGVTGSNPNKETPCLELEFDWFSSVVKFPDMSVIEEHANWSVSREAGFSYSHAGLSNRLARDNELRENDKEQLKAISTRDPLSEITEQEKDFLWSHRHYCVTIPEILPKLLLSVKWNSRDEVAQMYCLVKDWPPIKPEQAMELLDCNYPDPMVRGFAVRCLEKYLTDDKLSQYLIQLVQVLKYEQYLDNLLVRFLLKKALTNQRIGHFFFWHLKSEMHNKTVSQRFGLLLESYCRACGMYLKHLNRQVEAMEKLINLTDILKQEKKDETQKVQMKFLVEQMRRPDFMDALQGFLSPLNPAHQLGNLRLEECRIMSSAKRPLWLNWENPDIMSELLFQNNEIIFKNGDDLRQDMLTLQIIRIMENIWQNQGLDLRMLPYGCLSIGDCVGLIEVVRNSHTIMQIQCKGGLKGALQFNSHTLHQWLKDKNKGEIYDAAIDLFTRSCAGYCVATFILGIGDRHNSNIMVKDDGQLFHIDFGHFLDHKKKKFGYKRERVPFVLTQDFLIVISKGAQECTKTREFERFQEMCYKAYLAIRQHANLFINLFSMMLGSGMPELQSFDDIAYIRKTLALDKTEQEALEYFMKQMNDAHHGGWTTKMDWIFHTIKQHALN
# Sequence of PIK3CG (human) (P48736 whole entry, looked up): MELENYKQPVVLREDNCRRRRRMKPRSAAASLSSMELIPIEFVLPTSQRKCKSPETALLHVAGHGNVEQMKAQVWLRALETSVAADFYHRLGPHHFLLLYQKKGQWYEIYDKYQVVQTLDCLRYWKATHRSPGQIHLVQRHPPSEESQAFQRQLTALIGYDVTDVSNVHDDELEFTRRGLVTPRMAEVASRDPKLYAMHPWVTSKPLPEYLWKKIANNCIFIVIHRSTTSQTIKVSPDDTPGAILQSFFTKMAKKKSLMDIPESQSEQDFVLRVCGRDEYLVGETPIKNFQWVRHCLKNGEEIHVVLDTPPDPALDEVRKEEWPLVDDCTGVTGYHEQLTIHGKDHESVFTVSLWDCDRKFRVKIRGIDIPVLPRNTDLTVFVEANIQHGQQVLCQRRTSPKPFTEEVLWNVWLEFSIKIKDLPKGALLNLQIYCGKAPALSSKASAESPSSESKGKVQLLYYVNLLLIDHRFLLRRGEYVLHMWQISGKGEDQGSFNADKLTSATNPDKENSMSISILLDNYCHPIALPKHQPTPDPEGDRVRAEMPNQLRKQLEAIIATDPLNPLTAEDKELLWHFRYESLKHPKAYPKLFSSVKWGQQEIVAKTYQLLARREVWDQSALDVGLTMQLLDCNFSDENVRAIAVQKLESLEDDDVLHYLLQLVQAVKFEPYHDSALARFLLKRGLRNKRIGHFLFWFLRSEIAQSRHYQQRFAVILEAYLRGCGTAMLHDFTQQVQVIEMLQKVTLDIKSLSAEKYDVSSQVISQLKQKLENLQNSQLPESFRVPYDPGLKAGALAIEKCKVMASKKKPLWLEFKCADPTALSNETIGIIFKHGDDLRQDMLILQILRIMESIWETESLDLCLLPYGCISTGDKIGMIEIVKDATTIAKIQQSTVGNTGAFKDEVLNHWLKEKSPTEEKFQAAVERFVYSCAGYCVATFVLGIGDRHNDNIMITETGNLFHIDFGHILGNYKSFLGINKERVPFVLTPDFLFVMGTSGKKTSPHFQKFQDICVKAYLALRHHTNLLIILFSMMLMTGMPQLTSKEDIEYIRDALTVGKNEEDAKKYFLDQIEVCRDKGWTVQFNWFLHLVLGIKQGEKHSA
# Sequence of PIK3CD (Human) (O00329 whole entry, looked up): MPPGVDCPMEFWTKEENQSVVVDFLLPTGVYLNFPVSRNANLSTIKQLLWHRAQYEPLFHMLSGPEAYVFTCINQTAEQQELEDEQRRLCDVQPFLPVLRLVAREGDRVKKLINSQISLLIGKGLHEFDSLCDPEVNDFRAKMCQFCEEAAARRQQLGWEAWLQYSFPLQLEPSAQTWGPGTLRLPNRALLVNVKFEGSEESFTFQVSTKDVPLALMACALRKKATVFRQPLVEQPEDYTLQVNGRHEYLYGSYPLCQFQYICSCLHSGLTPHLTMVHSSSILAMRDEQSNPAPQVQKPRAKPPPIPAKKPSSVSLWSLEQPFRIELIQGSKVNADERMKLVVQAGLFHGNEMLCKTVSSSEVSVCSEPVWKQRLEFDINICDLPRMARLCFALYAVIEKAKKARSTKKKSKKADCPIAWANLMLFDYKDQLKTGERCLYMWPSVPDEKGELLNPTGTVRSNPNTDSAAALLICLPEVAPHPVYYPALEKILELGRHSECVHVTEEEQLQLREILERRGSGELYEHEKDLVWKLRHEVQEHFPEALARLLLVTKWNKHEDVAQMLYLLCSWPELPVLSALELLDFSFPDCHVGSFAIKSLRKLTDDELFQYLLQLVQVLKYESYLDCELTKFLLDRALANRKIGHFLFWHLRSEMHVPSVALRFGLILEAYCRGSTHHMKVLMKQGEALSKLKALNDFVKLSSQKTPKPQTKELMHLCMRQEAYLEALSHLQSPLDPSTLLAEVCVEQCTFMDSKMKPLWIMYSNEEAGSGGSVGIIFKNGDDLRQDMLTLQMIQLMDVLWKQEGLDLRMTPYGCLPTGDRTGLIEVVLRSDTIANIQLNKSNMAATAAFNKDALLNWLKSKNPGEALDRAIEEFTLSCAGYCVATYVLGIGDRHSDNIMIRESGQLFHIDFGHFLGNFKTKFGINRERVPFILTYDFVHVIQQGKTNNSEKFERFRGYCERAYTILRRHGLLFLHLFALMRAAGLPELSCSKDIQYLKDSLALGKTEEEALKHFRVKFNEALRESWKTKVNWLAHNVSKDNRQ
# Sequence of PIK3CB (Human) (P42338 whole entry, looked up): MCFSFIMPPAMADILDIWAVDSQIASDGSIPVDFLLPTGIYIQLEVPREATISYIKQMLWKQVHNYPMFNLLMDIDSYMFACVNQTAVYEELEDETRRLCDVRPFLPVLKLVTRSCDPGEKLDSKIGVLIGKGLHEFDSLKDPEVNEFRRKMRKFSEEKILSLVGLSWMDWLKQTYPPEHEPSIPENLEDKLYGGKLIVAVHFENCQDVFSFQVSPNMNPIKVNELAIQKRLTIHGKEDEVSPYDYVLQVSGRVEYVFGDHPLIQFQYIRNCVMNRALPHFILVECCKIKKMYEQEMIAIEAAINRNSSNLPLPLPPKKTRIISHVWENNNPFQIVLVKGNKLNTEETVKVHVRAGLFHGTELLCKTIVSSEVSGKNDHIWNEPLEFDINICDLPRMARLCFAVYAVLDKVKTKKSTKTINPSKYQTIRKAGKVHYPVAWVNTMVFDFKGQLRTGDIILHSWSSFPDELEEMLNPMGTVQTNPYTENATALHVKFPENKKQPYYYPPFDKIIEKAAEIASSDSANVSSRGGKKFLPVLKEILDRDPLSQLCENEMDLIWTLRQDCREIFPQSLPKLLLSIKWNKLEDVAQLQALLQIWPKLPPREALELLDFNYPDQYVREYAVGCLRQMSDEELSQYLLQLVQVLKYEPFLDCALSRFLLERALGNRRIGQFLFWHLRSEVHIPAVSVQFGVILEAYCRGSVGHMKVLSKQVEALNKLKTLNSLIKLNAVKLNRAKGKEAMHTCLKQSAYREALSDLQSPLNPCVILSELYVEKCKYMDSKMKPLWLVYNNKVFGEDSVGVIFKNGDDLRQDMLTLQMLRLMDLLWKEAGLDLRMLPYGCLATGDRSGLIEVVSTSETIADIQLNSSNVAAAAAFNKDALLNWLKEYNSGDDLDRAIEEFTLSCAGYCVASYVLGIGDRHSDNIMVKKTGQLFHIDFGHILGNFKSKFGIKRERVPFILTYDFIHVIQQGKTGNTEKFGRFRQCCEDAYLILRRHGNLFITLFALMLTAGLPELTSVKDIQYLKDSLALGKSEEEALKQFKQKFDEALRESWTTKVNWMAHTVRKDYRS
SMILES,IC50 [1],IC50 [2],IC50 [3],IC50 [4]
CCn1c([C@H](C)Nc2nc(N)ncc2C#N)cc2cccc(Cl)c2c1=O,< 100 nM,< 100 nM,< 100 nM,–
Cc1cccc2cc([C@H](C)Nc3nc(N)ncc3C#N)n(-c3cccc(F)c3)c(=O)c12,< 100 nM,< 100 nM,100 to 1000 nM,–
C[C@H](Nc1nc(N)ncc1C#N)c1cc2cccc(Cl)c2c(=O)n1-c1cccc(F)c1,< 100 nM,< 100 nM,100 to 1000 nM,–
C[C@H](Nc1nc(N)ncc1C#N)c1cc2cccc(-c3ccc(O)nc3)c2c(=O)n1-c1ccccc1,< 100 nM,< 100 nM,> 10000 nM,–
C[C@H](Nc1nc(N)ncc1C#N)c1cc2cccc(-c3cccc(NS(=O)(=O)N(C)C)c3)c2c(=O)n1-c1ccccc1,< 100 nM,100 to 1000 nM,> 10000 nM,–
C[C@H](Nc1nc(N)ncc1C#N)c1cc2cccc(Cl)c2c(=O)n1-c1ccccc1F,< 100 nM,< 100 nM,100 to 1000 nM,–
C[C@H](Nc1nc(N)ncc1C#N)c1cc2cccc(Cl)c2c(=O)n1-c1ccc(Cl)cc1,< 100 nM,< 100 nM,100 to 1000 nM,–
C[C@H](Nc1nc(N)ncc1C#N)c1cc2cccc(-c3ccnnc3)c2c(=O)n1-c1ccccc1,< 100 nM,100 to 1000 nM,> 10000 nM,–
C[C@H](Nc1nc(N)ncc1C#N)c1cc2cccc(-c3cccc(F)c3)c2c(=O)n1-c1ccccc1,< 100 nM,< 100 nM,100 to 1000 nM,–
COc1cc(-c2cccc3cc([C@H](C)Nc4nc(N)ncc4C(=O)N(C)CCO)n(-c4ccccc4)c(=O)c23)ccn1,–,–,> 10000 nM,> 10000 nM
C[C@H](Nc1nc(N)ncc1C#N)c1nc2cccc(Cl)c2c(=O)n1-c1ccccc1,< 100 nM,< 100 nM,100 to 1000 nM,–
C[C@H](Nc1nc(N)ncc1C#N)c1cc2cccc(Cl)c2c(=O)n1-c1cscn1,< 100 nM,< 100 nM,< 100 nM,–
Cc1cc(-c2cccc3cc([C@H](C)Nc4nc(N)ncc4C#N)n(-c4ccccc4)c(=O)c23)cn(C)c1=O,< 100 nM,< 100 nM,> 10000 nM,–
CC#Cc1cccc2cc([C@H](C)Nc3nc(N)ncc3C#N)n(-c3ccccc3)c(=O)c12,< 100 nM,< 100 nM,100 to 1000 nM,–
C[C@H](Nc1nc(N)ncc1C#N)c1cc2cccc(-c3cccc(N(C)C)c3)c2c(=O)n1-c1ccccc1,< 100 nM,< 100 nM,–,100 to 1000 nM
C[C@H](Nc1nc(N)ncc1C(=O)N(C)C)c1cc2cccc(-c3cnn(C)c3)c2c(=O)n1-c1ccccc1,< 100 nM,< 100 nM,> 10000 nM,–
C[C@H](Nc1nc(N)ncc1C#N)c1cc2cccc(-c3cccc(S(C)(=O)=O)c3)c2c(=O)n1-c1ccccc1,< 100 nM,< 100 nM,> 10000 nM,–
COc1cc(-c2cccc3cc([C@H](C)Nc4nc(N)ncc4-c4cccnc4)n(-c4ccccc4)c(=O)c23)ccn1,100 to 1000 nM,100 to 1000 nM,> 10000 nM,–
CC(C)n1c([C@H](C)Nc2nc(N)ncc2C#N)cc2cccc(Cl)c2c1=O,< 100 nM,< 100 nM,< 100 nM,–
C[C@H](Nc1nc(N)ncc1C#N)c1cc2cccc(-c3cnc4ccccc4c3)c2c(=O)n1-c1cccc(F)c1,< 100 nM,< 100 nM,–,100 to 1000 nM

SMILES,IC50 [1],IC50 [2],IC50 [3],IC50 [4]
COc1cc(-c2cccc3cc([C@H](C)Nc4nc(N)ncc4C#N)n(-c4ccccc4)c(=O)c23)cnc1OC,< 100 nM,< 100 nM,–,< 100 nM
C[C@H](Nc1nc(N)ncc1C#N)c1cc2cccc(Cl)c2c(=O)n1-c1cccc(F)c1F,< 100 nM,< 100 nM,–,> 10000 nM
C[C@H](Nc1nc(N)ncc1C#N)c1cc2cccc(-c3ccc(=O)n(C4CCOCC4)c3)c2c(=O)n1-c1ccccc1,< 100 nM,< 100 nM,–,100 to 1000 nM
C#Cc1cccc2cc([C@H](C)Nc3nc(N)ncc3C#N)n(-c3ccccc3)c(=O)c12,< 100 nM,< 100 nM,100 to 1000 nM,–
COc1ccc(-c2cccc3cc([C@H](C)Nc4nc(N)ncc4C#N)n(C4CC4)c(=O)c23)cn1,< 100 nM,< 100 nM,100 to 1000 nM,–
COc1cc(-c2cccc3cc([C@H](C)Nc4nc(N)ncc4C#N)n(-c4ccccc4)c(=O)c23)cnc1C,< 100 nM,< 100 nM,–,100 to 1000 nM
C[C@H](Nc1nc(N)ncc1C#N)c1cc2cccc(-c3cncc(OC(F)F)c3)c2c(=O)n1-c1ccccc1,< 100 nM,< 100 nM,> 10000 nM,–
Cc1ncc(-c2cccc3cc([C@H](C)Nc4nc(N)ncc4C#N)n(-c4cccc(F)c4)c(=O)c23)cn1,< 100 nM,< 100 nM,> 10000 nM,–
C[C@H](Nc1cc(Cl)ncn1)c1cc2cccc(Cl)c2c(=O)n1-c1ccccc1,–,–,> 10000 nM,> 10000 nM
C[C@H](Nc1nc(N)ncc1C#N)c1cc2cccc(-c3ccn(C)c(=O)c3)c2c(=O)n1-c1ccccc1,–,–,> 10000 nM,> 10000 nM
COc1cc(-c2cccc3cc([C@H](C)Nc4nc(N)ncc4-c4ccncc4)n(-c4ccccc4)c(=O)c23)ccn1,< 100 nM,< 100 nM,> 10000 nM,–
C[C@H](Nc1nc(N)ncc1C#N)c1cc2cccc(Cl)c2c(=O)n1-c1ccon1,< 100 nM,< 100 nM,100 to 1000 nM,–
C[C@H](Nc1nc(N)ncc1C#N)c1cc2cccc(-c3cncc(O)c3)c2c(=O)n1-c1ccccc1,< 100 nM,< 100 nM,–,< 100 nM
COc1cncc(-c2cccc3nc([C@H](C)Nc4nc(N)ncc4C#N)n(-c4ccccc4)c(=O)c23)c1,< 100 nM,< 100 nM,–,100 to 1000 nM
C[C@H](Nc1nc(N)ncc1C#N)c1cc2cccc(Cl)c2c(=O)n1-c1ccc(F)cc1F,< 100 nM,< 100 nM,100 to 1000 nM,–
COc1cc(-c2cccc3cc([C@H](C)N)n(-c4ccccc4)c(=O)c23)cnc1C,–,–,100 to 1000 nM,–
C[C@H](Nc1nc(N)ncc1C#N)c1cc2cccc(Cl)c2c(=O)n1-c1ccc(OC(F)(F)F)cc1,100 to 1000 nM,100 to 1000 nM,–,> 10000 nM
C[C@H](Nc1nc(N)ncc1C#N)c1cc2cccc(-c3ccc(S(C)(=O)=O)cc3)c2c(=O)n1-c1ccccc1,< 100 nM,< 100 nM,> 10000 nM,–
C[C@H](Nc1nc(N)ncc1C#N)c1cc2cccc(-c3cncc(N(C)S(C)(=O)=O)c3)c2c(=O)n1-c1ccccc1,< 100 nM,< 100 nM,–,100 to 1000 nM
C[C@H](Nc1nc(N)ncc1C#N)c1cc2cccc(Cl)c2c(=O)n1-c1cc(F)ccc1F,< 100 nM,< 100 nM,100 to 1000 nM,–

# The remaining lines, values ahead:
IC50 [1],IC50 [2],IC50 [3],IC50 [4],SMILES
< 100 nM,< 100 nM,> 10000 nM,–,Cc1ccc(-c2cccc3cc([C@H](C)Nc4nc(N)ncc4C#N)n(-c4ccccc4)c(=O)c23)cn1
< 100 nM,< 100 nM,100 to 1000 nM,–,C[C@H](Nc1nc(N)ncc1-c1cscn1)c1cc2cccc(Cl)c2c(=O)n1-c1ccccc1
< 100 nM,< 100 nM,100 to 1000 nM,–,Cc1csc(-c2cnc(N)nc2N[C@@H](C)c2cc3cccc(Cl)c3c(=O)n2-c2ccccc2)n1
< 100 nM,< 100 nM,100 to 1000 nM,–,CCOc1ncc(-c2cnc(N)nc2N[C@@H](C)c2cc3cccc(Cl)c3c(=O)n2-c2ccccc2)s1
< 100 nM,< 100 nM,100 to 1000 nM,–,C[C@H](Nc1nc(N)ncc1-c1cncs1)c1cc2cccc(Cl)c2c(=O)n1-c1ccccc1
< 100 nM,< 100 nM,> 10000 nM,–,COc1cc(-c2cccc3cc([C@H](C)Nc4nc(N)ncc4[N+](=O)[O-])n(-c4ccccc4)c(=O)c23)ccn1
< 100 nM,< 100 nM,100 to 1000 nM,–,C#Cc1cnc(N)nc1N[C@@H](C)c1cc2cccc(Cl)c2c(=O)n1-c1ccccc1
–,–,> 10000 nM,> 10000 nM,COc1cc(N[C@@H](C)c2cc3cccc(Cl)c3c(=O)n2-c2ccccc2)nc(N)n1
< 100 nM,< 100 nM,< 100 nM,–,C[C@H](Nc1nc(N)ncc1C#N)c1cc2cccc(Cl)c2c(=O)n1-c1ccccc1
< 100 nM,< 100 nM,< 100 nM,–,CCOc1nc(-c2cnc(N)nc2N[C@@H](C)c2cc3cccc(Cl)c3c(=O)n2-c2ccccc2)cs1
100 to 1000 nM,< 100 nM,–,> 10000 nM,Cc1cnc(-c2cnc(N)nc2N[C@@H](C)c2cc3cccc(Cl)c3c(=O)n2-c2ccccc2)s1
< 100 nM,< 100 nM,> 10000 nM,–,COc1ccc(-c2cccc3cc([C@H](C)Nc4nc(N)ncc4C#N)n(-c4ccccc4)c(=O)c23)nc1
< 100 nM,< 100 nM,> 10000 nM,–,Cc1ncc(-c2cccc3cc([C@H](C)Nc4nc(N)ncc4C#N)n(-c4ccccc4)c(=O)c23)cn1
100 to 1000 nM,< 100 nM,–,> 10000 nM,C[C@H](Nc1nc(N)ncc1-c1ccc(O)cc1)c1cc2cccc(Cl)c2c(=O)n1-c1ccccc1
100 to 1000 nM,100 to 1000 nM,–,> 10000 nM,Cc1nc(-c2cnc(N)nc2N[C@@H](C)c2cc3cccc(Cl)c3c(=O)n2-c2ccccc2)sc1C
< 100 nM,< 100 nM,–,> 10000 nM,C[C@H](Nc1nc(N)ncc1-c1ccsc1)c1cc2cccc(Cl)c2c(=O)n1-c1ccccc1
< 100 nM,< 100 nM,100 to 1000 nM,–,C[C@H](Nc1nc(N)ncc1C(=O)N(C)C)c1cc2cccc(Cl)c2c(=O)n1-c1ccccc1
< 100 nM,< 100 nM,> 10000 nM,–,CNc1cc(-c2cccc3cc([C@H](C)Nc4nc(N)ncc4C#N)n(-c4ccccc4)c(=O)c23)ccn1
< 100 nM,< 100 nM,–,> 10000 nM,COc1cccc(-c2cccc3cc([C@H](C)Nc4nc(N)ncc4C#N)n(-c4ccccc4)c(=O)c23)n1
< 100 nM,< 100 nM,100 to 1000 nM,–,C[C@H](Nc1nc(N)ncc1-c1ncco1)c1cc2cccc(Cl)c2c(=O)n1-c1ccccc1
